Data as given in patent US20240158446A1, “CYCLIC COMPOUND HAVING SELECTIVE INHIBITORY ACTION ON KRAS OVER HRAS AND NRAS” (CHUGAI SEIYAKU KABUSHIKI KAISHA, priority 2021, published 2024).

Columns and labels:
[1] = molecular target: GDP-bound NRAS wild-type protein (Homo sapiens, UniProt P01111); assay: Binding to NRAS by surface plasmon resonance (SPR), Single Cycle Kinetics; conditions: SPR, GDP-bound NRAS wild-type protein vs GDP-bound KRAS wild-type protein
[2] = molecular target: GDP-bound KRAS wild-type protein (Homo sapiens, UniProt P01116); assay: Binding to KRAS by surface plasmon resonance (SPR), Single Cycle Kinetics; conditions: SPR, Single Cycle Kinetics, GDP-bound KRAS wild-type protein; read-out: KRAS KD
Chain of GDP-bound KRAS wild-type protein (P01116 whole entry): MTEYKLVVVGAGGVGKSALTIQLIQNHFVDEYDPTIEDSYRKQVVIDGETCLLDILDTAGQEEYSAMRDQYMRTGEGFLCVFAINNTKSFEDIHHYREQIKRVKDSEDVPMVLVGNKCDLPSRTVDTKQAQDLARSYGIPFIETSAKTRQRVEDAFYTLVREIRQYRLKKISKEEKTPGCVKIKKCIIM

[3] = molecular target: GDP-bound HRAS wild-type protein (Homo sapiens, UniProt P01112); assay: Binding to HRAS by surface plasmon resonance (SPR), Single Cycle Kinetics; conditions: SPR, GDP-bound HRAS wild-type protein vs GDP-bound KRAS wild-type protein
Chain of GDP-bound HRAS wild-type protein (P01112 whole entry): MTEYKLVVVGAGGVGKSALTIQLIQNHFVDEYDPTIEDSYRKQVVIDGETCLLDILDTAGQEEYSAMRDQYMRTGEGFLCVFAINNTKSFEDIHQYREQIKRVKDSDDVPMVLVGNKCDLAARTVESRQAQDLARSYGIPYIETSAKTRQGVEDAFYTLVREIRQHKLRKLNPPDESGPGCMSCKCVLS

Chain of GDP-bound NRAS wild-type protein (P01111 whole entry): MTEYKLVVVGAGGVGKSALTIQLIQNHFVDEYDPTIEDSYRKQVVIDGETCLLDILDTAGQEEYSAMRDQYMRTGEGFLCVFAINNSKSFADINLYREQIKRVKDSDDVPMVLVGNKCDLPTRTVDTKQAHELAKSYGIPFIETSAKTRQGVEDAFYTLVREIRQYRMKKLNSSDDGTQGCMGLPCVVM

Structure (SMILES)	Kd [2] [pM]	NRAS/KRAS (ratio of KD value for NRAS to KD value for KRAS) [1]	HRAS/KRAS (ratio of KD value for HRAS to KD value for KRAS) [3]
CCC[C@H]1C(=O)N[C@@H](C2CCCC2)C(=O)N(C)CC(=O)N(C)[C@H]2C/C=C\CCN(C2=O)[C@@H](Cc2ccc(C)cc2)C(=O)N(C)CC(=O)N[C@@H](CCc2cc(F)c(C(F)(F)F)c(F)c2)C(=O)N2C[C@H](OCC)C[C@H]2C(=O)NC2(CC(C)(C)C2)C(=O)N(C)[C@@H](CC(C)(C)C)C(=O)N(C)[C@H](C(=O)N(C)C)CC(=O)N1C [PP2989]	87	AA (a compound having 20 or more is denoted as AA)	A (a compound having 10 or more and less than 20 is denoted as A)
CCC[C@H]1C(=O)N[C@@H](C2CCCC2)C(=O)N(C)CC(=O)N(C)[C@H]2C/C=C\CCN(C2=O)[C@@H](Cc2ccc(C)cc2)C(=O)N(C)CC(=O)N[C@@H](CCc2ccc(C(F)(F)F)c(OC)c2)C(=O)N2C[C@H](OCC)C[C@H]2C(=O)NC2(CC(C)(C)C2)C(=O)N(C)[C@@H](C2CCCC2)C(=O)N(C)[C@H](C(=O)N(C)C)CC(=O)N1C [PP2992]	190	AA (a compound having 20 or more is denoted as AA)	A (a compound having 10 or more and less than 20 is denoted as A)
CCC[C@H]1C(=O)N[C@@H]([C@@H](C)CC)C(=O)N(C)CC(=O)N(C)[C@H]2C/C=C\CCN(C2=O)[C@@H](Cc2ccc(C)cc2)C(=O)N(C)CC(=O)N[C@@H](CCc2cc(F)c(C(F)(F)F)c(F)c2)C(=O)N2C[C@H](OCC)C[C@H]2C(=O)NC2(CC(C)(C)C2)C(=O)N(C)[C@@H](CC(F)(F)F)C(=O)N(C)[C@H](C(=O)N(C)C)CC(=O)N1C [PP2993]	430	A (a compound having 10 or more and less than 20 is denoted as A)	A (a compound having 10 or more and less than 20 is denoted as A)
CCC[C@H]1C(=O)N[C@@H](C2CCCCC2)C(=O)N(C)CC(=O)N(C)[C@H]2C/C=C\CCN(C2=O)[C@@H](Cc2ccc(C(F)(F)F)cc2)C(=O)N(C)CC(=O)N[C@@H](CCc2ccc(C(F)(F)F)c(Cl)c2)C(=O)N2C[C@H](OCC)C[C@H]2C(=O)NC2(CC(C)(C)C2)C(=O)N(C)[C@@H](C2CCCC2)C(=O)N(C)[C@H](C(=O)N(C)C)CC(=O)N1C [PP2996]	360	AA (a compound having 20 or more is denoted as AA)	A (a compound having 10 or more and less than 20 is denoted as A)
CCC[C@H]1C(=O)N[C@@H]([C@@H](C)CC)C(=O)N(C)CC(=O)N(C)[C@H]2C/C=C\CCN(C2=O)[C@@H](Cc2ccc(C)cc2)C(=O)N(C)CC(=O)N[C@@H](CCc2cc(F)c(C(F)(F)F)c(F)c2)C(=O)N2CC3(CC3)C[C@H]2C(=O)NC2(CC(C)(C)C2)C(=O)N(C)[C@@H](CC(C)(C)C)C(=O)N(C)[C@H](C(=O)N(C)C)CC(=O)N1C [PP2997]	120	A (a compound having 10 or more and less than 20 is denoted as A)	B (a compound having 3 or more and less than 10 is denoted as B)
CCC[C@H]1C(=O)N[C@@H](C2CCCC2)C(=O)N(C)CC(=O)N(C)[C@H]2C/C=C\CCN(C2=O)[C@@H](Cc2ccc(C)cc2)C(=O)N(C)CC(=O)N[C@@H](CCc2cc(F)c(C(F)(F)F)c(F)c2)C(=O)N2CC3(CC3)C[C@H]2C(=O)NC2(CC(C)(C)C2)C(=O)N(C)[C@@H](CC(C)(C)C)C(=O)N(C)[C@H](C(=O)N(C)C)CC(=O)N1C [PP2999]	130	AA (a compound having 20 or more is denoted as AA)	A (a compound having 10 or more and less than 20 is denoted as A)
CCC[C@H]1C(=O)N[C@@H](C2CCOCC2)C(=O)N(C)CC(=O)N(C)[C@H]2C/C=C\CCN(C2=O)[C@@H](Cc2ccc(C(F)(F)F)cc2)C(=O)N(C)CC(=O)N[C@@H](CCc2ccc(C(F)(F)F)c(Cl)c2)C(=O)N2C[C@H](OCC)C[C@H]2C(=O)NC2(CC(C)(C)C2)C(=O)N(C)[C@@H](C2CCCC2)C(=O)N(C)[C@H](C(=O)N(C)C)CC(=O)N1C [PP3000]	1300	AA (a compound having 20 or more is denoted as AA)	A (a compound having 10 or more and less than 20 is denoted as A)
CCC[C@H]1C(=O)N[C@@H]([C@@H](C)CC)C(=O)N(C)CC(=O)N(C)[C@H]2C/C=C\CCN(C2=O)[C@@H](Cc2ccc(C)cc2)C(=O)N(C)CC(=O)N[C@@H](CCc2cc(F)c(C(F)(F)F)c(F)c2)C(=O)N2CC3(CC3)C[C@H]2C(=O)NC2(CC(C)(C)C2)C(=O)N(C)[C@@H](CC(F)(F)F)C(=O)N(C)[C@H](C(=O)N(C)C)CC(=O)N1C [PP3003]	720	AA (a compound having 20 or more is denoted as AA)	A (a compound having 10 or more and less than 20 is denoted as A)
CCC[C@H]1C(=O)N[C@@H]([C@@H](C)CC)C(=O)N(C)CC(=O)N(C)[C@H]2C/C=C\CCN(C2=O)[C@@H](Cc2ccc(C)cc2)C(=O)N(C)CC(=O)N[C@@H](CCc2ccc(C(F)(F)F)c(OC)c2)C(=O)N2C[C@H](OCC)C[C@H]2C(=O)NC2(CC(C)(C)C2)C(=O)N(C)[C@@H]([C@@H](C)CC)C(=O)N(C)[C@H](C(=O)N(C)C)CC(=O)N1C [PP3006]	410	A (a compound having 10 or more and less than 20 is denoted as A)	A (a compound having 10 or more and less than 20 is denoted as A)
CCC[C@H]1C(=O)N[C@@H]([C@@H](C)CC)C(=O)N(C)CC(=O)N(C)[C@H]2C/C=C\CCN(C2=O)[C@@H](Cc2ccc(C)cc2)C(=O)N(C)CC(=O)N[C@@H](CCc2ccc(C(F)(F)F)c(OC)c2)C(=O)N2CC3(CC3)C[C@H]2C(=O)NC2(CC(C)(C)C2)C(=O)N(C)[C@@H](CC(F)(F)F)C(=O)N(C)[C@H](C(=O)N(C)C)CC(=O)N1C [PP3012]	1900	A (a compound having 10 or more and less than 20 is denoted as A)	A (a compound having 10 or more and less than 20 is denoted as A)
CCC[C@H]1C(=O)N[C@@H](C2CCCCC2)C(=O)N(C)CC(=O)N(C)[C@H]2C/C=C\CCN(C2=O)[C@@H](Cc2ccc(C(F)(F)F)cc2)C(=O)N(C)CC(=O)N[C@@H](CCc2ccc(C(F)(F)F)c(Cl)c2)C(=O)N2C[C@H](OCC)C[C@H]2C(=O)NC2(CC(C)(C)C2)C(=O)N(C)[C@@H](CC(C)(C)C)C(=O)N(C)[C@H](C(=O)N(C)C)CC(=O)N1C [PP3014]	370	AA (a compound having 20 or more is denoted as AA)	A (a compound having 10 or more and less than 20 is denoted as A)

Continued, in another order:

Kd [2] [pM]	Structure (SMILES)	NRAS/KRAS (ratio of KD value for NRAS to KD value for KRAS) [1]	HRAS/KRAS (ratio of KD value for HRAS to KD value for KRAS) [3]
2200	CCC[C@H]1C(=O)N[C@@H](C2CCCCC2)C(=O)N(C)CC(=O)N(C)[C@H]2C/C=C\CCN(C2=O)[C@@H](Cc2ccc(C(F)(F)F)cc2)C(=O)N(C)CC(=O)N[C@@H](CCc2ccc(C(F)(F)F)c(Cl)c2)C(=O)N2C[C@H](OCC)C[C@H]2C(=O)NC2(CC(C)(C)C2)C(=O)N(C)[C@@H]([C@@H](C)CC)C(=O)N(C)[C@H](C(=O)N(C)C)CC(=O)N1C [PP3015]	AA (a compound having 20 or more is denoted as AA)	A (a compound having 10 or more and less than 20 is denoted as A)
1500	CCC[C@H]1C(=O)N[C@@H](C2CCCCC2)C(=O)N(C)CC(=O)N(C)[C@H]2C/C=C\CCN(C2=O)[C@@H](Cc2ccc(C(F)(F)F)cc2)C(=O)N(C)CC(=O)N[C@@H](CCc2ccc(C(F)(F)F)c(Cl)c2)C(=O)N2C[C@H](OCC)C[C@H]2C(=O)NC2(CC(C)(C)C2)C(=O)N(C)[C@@H](CC(C)C)C(=O)N(C)[C@H](C(=O)N(C)C)CC(=O)N1C [PP3017]	AA (a compound having 20 or more is denoted as AA)	A (a compound having 10 or more and less than 20 is denoted as A)
590	CCC[C@H]1C(=O)N[C@@H](C2CCOCC2)C(=O)N(C)CC(=O)N(C)[C@H]2C/C=C\CCN(C2=O)[C@@H](Cc2ccc(C(F)(F)F)cc2)C(=O)N(C)CC(=O)N[C@@H](CCc2ccc(C(F)(F)F)c(Cl)c2)C(=O)N2C[C@H](OCC)C[C@H]2C(=O)NC2(CC(C)(C)C2)C(=O)N(C)[C@@H](CC(C)(C)C)C(=O)N(C)[C@H](C(=O)N(C)C)CC(=O)N1C [PP3022]	AA (a compound having 20 or more is denoted as AA)	A (a compound having 10 or more and less than 20 is denoted as A)
1900	CCC[C@H]1C(=O)N[C@@H]([C@@H](C)CC)C(=O)N(C)CC(=O)N(C)[C@H]2C/C=C\CCN(C2=O)[C@@H](Cc2ccc(C(F)(F)F)cc2)C(=O)N(C)CC(=O)N[C@@H](CCc2ccc(Cl)c(Cl)c2)C(=O)N2CCCCC[C@H]2C(=O)NC2(CC(C)(C)C2)C(=O)N(C)[C@@H](C(CC)CC)C(=O)N(C)[C@H](C(=O)N(C)C)CC(=O)N1C [PP3031]	AA (a compound having 20 or more is denoted as AA)	A (a compound having 10 or more and less than 20 is denoted as A)
100	CCO[C@@H]1C[C@H]2C(=O)NC3(CC(C)(C)C3)C(=O)N(C)[C@@H](C(CC)CC)C(=O)N(C)[C@H](C(=O)N(C)C)CC(=O)N(C)[C@H]3CCCCCCc4ccc(cc4)C[C@@H](C(=O)N(C)CC(=O)N[C@@H](CCc4ccc(C(F)(F)F)c(OC)c4)C(=O)N2C1)N1CC/C=C\C[C@@H](C1=O)N(C)C(=O)CN(C)C(=O)[C@H]([C@@H](C)CC)NC3=O [PP3032]	AA (a compound having 20 or more is denoted as AA)	A (a compound having 10 or more and less than 20 is denoted as A)
